Experimental data as given in patent publication US20070049564A1 (Wyeth, priority 2005, published 2007).
In brackets after ≈: the same amount, converted by molar mass. Where two headings read alike, the source gives them in different places.

How the values were obtained:
Experiment in all cases: MIC, broth microdilution
[1] = test system: S. aureus GC 1079; conditions: Staphylococcus aureus
[2] = test system: E. coli GC 2203; conditions: Escherichia coli
[3] = test system: S. aureus GC 6466; conditions: Staphylococcus aureus
[4] = test system: E. coli GC 4559; conditions: Escherichia coli
[5] = test system: E. coli GC 2235; conditions: Escherichia coli
[6] = test system: S. pyogenes GC 4563; conditions: Streptococcus pyogenes
[7] = test system: E. coli GC 4560; conditions: Escherichia coli
[8] = test system: E. coli GC 6465; conditions: Escherichia coli
[9] = test system: E. coli GC 2233; conditions: Escherichia coli
Description: (§1) Antimicrobial susceptibility testing. The in vitro activities of the antibiotics are determined by the broth microdilution method as recommended by the National Committee for Clinical Laboratory Standards (NCCLS) (1). Mueller-Hinton II broth (MHBII)(BBL Cockeysville, Md.) is the medium employed in the testing procedures. Microtiter plates containing serial dilutions of each antimicrobial agent are inoculated with each organism to yield the appropriate density (10^5 CFU/ml) in a 100 μl final volume. The plates are incubated for 18-22 hours at 35° C. in ambient air.
(§2) Representative compounds were first incubated in mouse serum for an hour prior to the in vitro testing against a panel of selected gram-positive and gram-negative bacteria strains. All compounds were also pre-incubated in water for an hour prior to testing as control.

[10] = test system: E. coli GC 2270; conditions: Escherichia coli
[11] = test system: E. coli GC 2271; conditions: Escherichia coli
Description: as §1, §2

[12] = test system: S. aureus GC 6335; conditions: Staphylococcus aureus
Description: as §1
Representative compounds were first incubated in mouse serum for an hour prior to the in vitro testing against a panel of selected gram-positive and gram-negative bacteria strains. All compounds were also pre-incubated in water for an hour prior to testing as control. Representative compounds of Formula I were incubated in human serum prior to MIC determination.

[13] = test system: E. coli GC 2234; conditions: Escherichia coli
[14] = test system: E. faecium GC 4556; conditions: Enterococcus faecium
[15] = test system: E. coli GC 3226; conditions: Escherichia coli
[16] = test system: S. aureus GC 6469; conditions: Staphylococcus aureus
[17] = test system: S. agalactiae GC 4564; conditions: Streptococcus agalactiae
[18] = test system: S. aureus GC 6467; conditions: Staphylococcus aureus
[19] = test system: S. typhimurium GC 2172; conditions: Salmonella enterica, TYPHIMURIUM
[20] = test system: E. coli GC 1073; conditions: Escherichia coli
[21] = GC1079, read-out: MINIMAL INHIBITORY CONCENTRATION MIC, pre-incubated in Mouse Serum
[22] = GC1079, read-out: MINIMAL INHIBITORY CONCENTRATION MIC, pre-incubated in Water
[23] = GC2203, read-out: MINIMAL INHIBITORY CONCENTRATION MIC, pre-incubated in Mouse Serum
[24] = GC2203, read-out: MINIMAL INHIBITORY CONCENTRATION MIC, pre-incubated in Water
[25] = GC6466, read-out: MINIMAL INHIBITORY CONCENTRATION MIC, pre-incubated in Mouse Serum
[26] = GC6466, read-out: MINIMAL INHIBITORY CONCENTRATION MIC, pre-incubated in Water
[27] = GC4559, read-out: MINIMAL INHIBITORY CONCENTRATION MIC, pre-incubated in Mouse Serum
[28] = GC4559, read-out: MINIMAL INHIBITORY CONCENTRATION MIC, pre-incubated in Water
[29] = GC2235, read-out: MINIMAL INHIBITORY CONCENTRATION MIC, pre-incubated in Mouse Serum
[30] = GC2235, read-out: MINIMAL INHIBITORY CONCENTRATION MIC, pre-incubated in Water
[31] = GC4563, read-out: MINIMAL INHIBITORY CONCENTRATION MIC, pre-incubated in Mouse Serum
[32] = GC4563, read-out: MINIMAL INHIBITORY CONCENTRATION MIC, pre-incubated in Water
[33] = GC4560, read-out: MINIMAL INHIBITORY CONCENTRATION MIC, pre-incubated in Mouse Serum
[34] = GC4560, read-out: MINIMAL INHIBITORY CONCENTRATION MIC, pre-incubated in Water
[35] = GC6465, read-out: MINIMAL INHIBITORY CONCENTRATION MIC, pre-incubated in Mouse Serum
[36] = GC6465, read-out: MINIMAL INHIBITORY CONCENTRATION MIC, pre-incubated in Water
[37] = GC2233, read-out: MINIMAL INHIBITORY CONCENTRATION MIC, pre-incubated in Mouse Serum
[38] = GC2233, read-out: MINIMAL INHIBITORY CONCENTRATION MIC, pre-incubated in Water
[39] = GC2270, read-out: MINIMAL INHIBITORY CONCENTRATION MIC, pre-incubated in Mouse Serum
[40] = GC2270, read-out: MINIMAL INHIBITORY CONCENTRATION MIC, pre-incubated in Water
[41] = GC2271, read-out: MINIMAL INHIBITORY CONCENTRATION MIC, pre-incubated in Mouse Serum
[42] = GC2271, read-out: MINIMAL INHIBITORY CONCENTRATION MIC, pre-incubated in Water
[43] = GC6335, read-out: MINIMAL INHIBITORY CONCENTRATION MIC, pre-incubated in Mouse Serum
[44] = GC6335, read-out: MINIMAL INHIBITORY CONCENTRATION MIC, pre-incubated in Water
[45] = GC2234, read-out: MINIMAL INHIBITORY CONCENTRATION MIC, pre-incubated in Mouse Serum
[46] = GC2234, read-out: MINIMAL INHIBITORY CONCENTRATION MIC, pre-incubated in Water
[47] = GC4556, read-out: MINIMAL INHIBITORY CONCENTRATION MIC, pre-incubated in Mouse Serum
[48] = GC4556, read-out: MINIMAL INHIBITORY CONCENTRATION MIC, pre-incubated in Water
[49] = GC3226, read-out: MINIMAL INHIBITORY CONCENTRATION MIC, pre-incubated in Mouse Serum
[50] = GC3226, read-out: MINIMAL INHIBITORY CONCENTRATION MIC, pre-incubated in Water
[51] = GC6469, read-out: MINIMAL INHIBITORY CONCENTRATION MIC, pre-incubated in Mouse Serum
[52] = GC6469, read-out: MINIMAL INHIBITORY CONCENTRATION MIC, pre-incubated in Water
[53] = GC4564, read-out: MINIMAL INHIBITORY CONCENTRATION MIC, pre-incubated in Mouse Serum
[54] = GC4564, read-out: MINIMAL INHIBITORY CONCENTRATION MIC, pre-incubated in Water
[55] = GC6467, read-out: MINIMAL INHIBITORY CONCENTRATION MIC, pre-incubated in Mouse Serum
[56] = GC6467, read-out: MINIMAL INHIBITORY CONCENTRATION MIC, pre-incubated in Water
[57] = read-out: MINIMAL INHIBITORY CONCENTRATION MIC, pre-incubated in Mouse Serum
[58] = read-out: MINIMAL INHIBITORY CONCENTRATION MIC, pre-incubated in Water
[59] = GC1073, read-out: MINIMAL INHIBITORY CONCENTRATION MIC, pre-incubated in Mouse Serum
[60] = GC1073, read-out: MINIMAL INHIBITORY CONCENTRATION MIC, pre-incubated in Water

Compound	MIC [1, 21] [µg/mL]	MIC [1, 22] [µg/mL]	MIC [2, 23] [µg/mL]	MIC [2, 24] [µg/mL]	MIC [3, 25] [µg/mL]	MIC [3, 26] [µg/mL]	MIC [4, 27] [µg/mL]	MIC [4, 28] [µg/mL]	MIC [5, 29] [µg/mL]	MIC [5, 30] [µg/mL]	MIC [6, 31] [µg/mL]	MIC [6, 32] [µg/mL]	MIC [7, 33] [µg/mL]	MIC [7, 34] [µg/mL]	MIC [8, 35] [µg/mL]	MIC [8, 36] [µg/mL]	MIC [9, 37] [µg/mL]	MIC [9, 38] [µg/mL]	MIC [10, 39] [µg/mL]	MIC [10, 40] [µg/mL]	further results
CCCN(CC(=O)Nc1cc(N(C)C)c2c(c1O)C(=O)C1=C(O)[C@]3(O)C(=O)C(C(N)=O)=C(O)[C@@H](N(C)C)[C@@H]3C[C@@H]1C2)C(=O)OCOC(=O)c1cccs1 [Example 25, ({[(2-{[(5aR,6aS,7S,10aS)-9-(aminocarbonyl)-4,7-bis(dimethylamino)-1,8,10a,11-tetrahydroxy-10,12-dioxo-5,5a,6,6a,7,10,10a,12-octahydrotetracen-2-yl]amino}-2-oxoethyl)(propyl)amino]carbonyl}oxy)methyl thiophene-2-carboxylate]	1 (≈ 1.32 µM)	2 (≈ 2.65 µM)	1 (≈ 1.32 µM)	> 64	0.25 (≈ 0.331 µM)	0.25 (≈ 0.331 µM)	2 (≈ 2.65 µM)	> 64	1 (≈ 1.32 µM)	32 (≈ 42.3 µM)	0.12 (≈ 0.159 µM)	0.25 (≈ 0.331 µM)	0.5 (≈ 0.662 µM)	2 (≈ 2.65 µM)	8 (≈ 10.6 µM)	> 64	2 (≈ 2.65 µM)	32 (≈ 42.3 µM)	1 (≈ 1.32 µM)	> 64	MIC [11, 41]: 1 µg/mL (≈ 1.32 µM); MIC [11, 42]: 32 µg/mL (≈ 42.3 µM); MIC [12, 43]: 0.5 µg/mL (≈ 0.662 µM); MIC [12, 44]: 0.5 µg/mL (≈ 0.662 µM); MIC [13, 45]: 1 µg/mL (≈ 1.32 µM); MIC [13, 46]: > 64 µg/mL; MIC [14, 47]: 1 µg/mL (≈ 1.32 µM); MIC [14, 48]: 4 µg/mL (≈ 5.29 µM); MIC [15, 49]: 2 µg/mL (≈ 2.65 µM); MIC [15, 50]: > 64 µg/mL; MIC [16, 51]: 2 µg/mL (≈ 2.65 µM); MIC [16, 52]: 4 µg/mL (≈ 5.29 µM); MIC [17, 53]: 0.5 µg/mL (≈ 0.662 µM); MIC [17, 54]: 0.5 µg/mL (≈ 0.662 µM); MIC [18, 55]: 2 µg/mL (≈ 2.65 µM); MIC [18, 56]: 2 µg/mL (≈ 2.65 µM); MIC [19, 57]: 8 µg/mL (≈ 10.6 µM); MIC [19, 58]: > 64 µg/mL; MIC [20, 59]: 2 µg/mL (≈ 2.65 µM); MIC [20, 60]: > 64 µg/mL
CCCN(CC(=O)Nc1cc(N(C)C)c2c(c1O)C(=O)C1=C(O)[C@]3(O)C(=O)C(C(N)=O)=C(O)[C@@H](N(C)C)[C@@H]3C[C@@H]1C2)C(=O)OCOC(=O)c1cc(C)cc(C)c1 [Example 26, ({[(2-{[(5aR,6aS,7S,10aS)-9-(aminocarbonyl)-4,7-bis(dimethylamino)-1,8,10a,11-tetrahydroxy-10,12-dioxo-5,5a,6,6a,7,10,10a,12-octahydrotetracen-2-yl]amino}-2-oxoethyl)(propyl)amino]carbonyl}oxy)methyl 3,5-dimethylbenzoate]	1 (≈ 1.29 µM)	2 (≈ 2.57 µM)	1 (≈ 1.29 µM)	> 64	0.25 (≈ 0.321 µM)	0.25 (≈ 0.321 µM)	2 (≈ 2.57 µM)	> 64	1 (≈ 1.29 µM)	64 (≈ 82.3 µM)	0.25 (≈ 0.321 µM)	0.25 (≈ 0.321 µM)	0.5 (≈ 0.643 µM)	8 (≈ 10.3 µM)	8 (≈ 10.3 µM)	> 64	2 (≈ 2.57 µM)	> 64	1 (≈ 1.29 µM)	> 64	MIC [11, 41]: 1 µg/mL (≈ 1.29 µM); MIC [11, 42]: > 64 µg/mL; MIC [12, 43]: 0.5 µg/mL (≈ 0.643 µM); MIC [12, 44]: 1 µg/mL (≈ 1.29 µM); MIC [13, 45]: 1 µg/mL (≈ 1.29 µM); MIC [13, 46]: > 64 µg/mL; MIC [14, 47]: 1 µg/mL (≈ 1.29 µM); MIC [14, 48]: 4 µg/mL (≈ 5.14 µM); MIC [15, 49]: 2 µg/mL (≈ 2.57 µM); MIC [15, 50]: > 64 µg/mL; MIC [16, 51]: 1 µg/mL (≈ 1.29 µM); MIC [16, 52]: 2 µg/mL (≈ 2.57 µM); MIC [17, 53]: 1 µg/mL (≈ 1.29 µM); MIC [17, 54]: 2 µg/mL (≈ 2.57 µM); MIC [18, 55]: 1 µg/mL (≈ 1.29 µM); MIC [18, 56]: 4 µg/mL (≈ 5.14 µM); MIC [19, 57]: 16 µg/mL (≈ 20.6 µM); MIC [19, 58]: > 64 µg/mL; MIC [20, 59]: 2 µg/mL (≈ 2.57 µM); MIC [20, 60]: > 64 µg/mL
